Measurements: patent US7666685B2, “Screening method for identification of compounds suitable for treatment of oral cavity malodor associated with consumption of garlic” (Wm. Wrigley Jr. Company, priority 2005, dated 2010)
Where “and” joins values, the source holds several entries; their conditions need not be identical. Equal values may be shown once.

Key:
[1] = In vitro dose response: SPME GC/MS headspace analysis of raw macerated garlic solution treated with active; conditions: for GC/MS Peak Area (diallyl disulfide headspace): individual runs; for GC/MS Peak Area (diallyl disulfide headspace), Mean: mean of 3 runs; for reduction of diallyl disulfide headspace concentration: vs control garlic solution
Experimental: A model solution containing raw chopped garlic (20 g) dispersed in water (200 ml) was prepared by blending in a Waring commercial blender (Waring Commercial, Torrington, Conn.) at low power for 30 seconds and at high power for 30 seconds. The resulting solution was homogeneous with no visible garlic particles present.
A portion of the raw, macerated garlic solution (5 g) was treated with different levels of potential ameliorating actives and the headspace was extracted and analyzed (as described in greater detail below) to determine the effect of the potential actives on the headspace concentration of compounds contributing to oral cavity malodor associated with consumption of garlic.
Headspace of a vessel containing a portion of the garlic solution (5 ml) treated with a potential active was extracted for 60 minutes utilizing solid phase microextraction (SPME) with a 75 μm Carboxen-polydimethyl siloxane fiber (Supelco, Bellefonte, Pa.).
The SPME fiber assembly was injected into an Agilent 6890 gas chromatograph (GC)/mass spectrometer (MS) modified for multidimensional analyses and equipped with a sniff port and Aroma Trax software (Microanalytics, Round Rock, Tex.). Fibers remained in the GC injection port for five minutes following injection.
The GC/MS operating parameters included a He carrier gas flow rate of 6.5 ml/min, split mode (2:1) and the injector set at 250° C. Column 1 was 12 meter, 0.53 mm I.D. with a methyl silica stationary phase. Column 2 was a 25 meter, 0.53 mm DB-5 capillary column. The oven was programmed to hold at 40° C. for 3 minutes and to heat to 220° C. at a rate of 7° C./min and hold at 220° C. for 20 minutes. The MS operated in Electron Impact Mode (E.I.) at 70 eV.
A model solution containing raw chopped garlic dispersed in water was prepared as described in Example 1. […] For comparison purposes, the diallyl disulfide content of the headspace of a control model solution (i.e., no menthone added) was also analyzed.

[2] = Sensory analysis: ten panelists rate the odor intensity of the raw macerated garlic solution with added active; conditions: for Odor Intensity (0–100): individual panelists, 0=no odor, 100=very strong odor; for Odor Intensity (0–100), Mean: mean of N = 10 panelists
Experimental: Sensory analysis of the solutions utilized for analytical analyses of the raw garlic described above was conducted by ten panelists who evaluated the odor intensity of the model solution (raw macerated garlic) with and without the different levels of added active. Odor intensity was assessed utilizing a 0-100 point scale ballot with 0=no odor and 100=very strong odor.

## CC(C)[C@@H]1CC[C@@H](C)CC1=O [menthone]
[1]; 0.3 mg/g garlic solution
  GC/MS Peak Area (diallyl disulfide headspace): 46610414 and 58241626 and 60764744
  GC/MS Peak Area (diallyl disulfide headspace), Mean: 55205595
[1]; 1 mg/g garlic solution
  GC/MS Peak Area (diallyl disulfide headspace): 20835556 and 16829160 and 16827232
  GC/MS Peak Area (diallyl disulfide headspace), Mean: 18163983
[1]; 3 mg/g garlic solution
  GC/MS Peak Area (diallyl disulfide headspace): 6746448 and 4757863 and 5868573
  GC/MS Peak Area (diallyl disulfide headspace), Mean: 5790961.3
[1]; Example 3: 1.63 mg in 2.5 g model solution, at each headspace analysis interval (5 hour intervals)
  less diallyl disulfide in headspace than control model solution: at least 50%
[2]; 0.33 mg/g
  Odor Intensity (0–100): 1 (2×) and 6 and 7 (4×) and 5 and 8 and 3
  Odor Intensity (0–100), Mean: 5.2
[2]; 1 mg/g
  Odor Intensity (0–100): 1 and 2 (6×) and 4 (2×) and 6
  Odor Intensity (0–100), Mean: 2.7
[2]; 3 mg/g
  Odor Intensity (0–100): 2 (2×) and 0 (2×) and 4 (2×) and 3 (2×) and 1 (2×)
  Odor Intensity (0–100), Mean: 2
[2]; active concentration 0.3 mg/g
  reduction of odor of raw macerated garlic in water (sensory): 48%
[2]; active concentration 3 mg/g
  reduction of odor of raw macerated garlic in water (sensory): 80%

## caryophyllene
[1]; 0.1 mg/g garlic solution
  GC/MS Peak Area (diallyl disulfide headspace): 52155883 and 49803124 and 56316479
  GC/MS Peak Area (diallyl disulfide headspace), Mean: 52758495
[1]; 0.24 mg/g garlic solution
  GC/MS Peak Area (diallyl disulfide headspace): 67591321 and 69400527 and 61729644
  GC/MS Peak Area (diallyl disulfide headspace), Mean: 66240497
[1]; 0.4 mg/g garlic solution
  GC/MS Peak Area (diallyl disulfide headspace): 93422075 and 91167385 and 94368797
  GC/MS Peak Area (diallyl disulfide headspace), Mean: 92986086
[1]; active concentration 0.1 mg/g
  reduction of diallyl disulfide headspace concentration: 34%
[1]; active concentration 0.4 mg/g
  reduction of diallyl disulfide headspace concentration: 63%
[2]; 0.1 mg/g
  Odor Intensity (0–100): 5 (3×) and 6 (2×) and 2 and 4 (3×) and 7
  Odor Intensity (0–100), Mean: 4.8
[2]; 0.2 mg/g
  Odor Intensity (0–100): 4 (2×) and 5 (3×) and 9 (2×) and 8 and 3 (2×)
  Odor Intensity (0–100), Mean: 5.5
[2]; 0.4 mg/g
  Odor Intensity (0–100): 2 and 5 and 3 (3×) and 4 (3×) and 0 and 1
  Odor Intensity (0–100), Mean: 2.9
[2]; active concentration 0.1 mg/g
  decrease of odor intensity (sensory): 52%
[2]; active concentration 0.4 mg/g
  decrease of odor intensity (sensory): 71%
